# Reference: patent US20250059139A1, “COMPOUNDS FOR TREATMENT OF CANCER” (THE JOHNS HOPKINS UNIVERSITY, priority 2021, published 2025)
# System: TRAMP-C2 mouse prostate cancer
# Assay: In vivo growth of TRAMP-C2 allografts in C57BL/6J wild type vs. NOX2-, iNOS-, S100A9-KO hosts
# Conditions: daily oral 10 mg/kg/d over a 3-week period; wild type and KO hosts
# Text: Prostate Cancer Models. The source, history, and characteristics of the human prostate cancer cell lines and PDXs used, as well as cell culture conditions for their in vitro maintenance and the in vivo protocol for xenograft growth in triple immune-deficient NSG (i.e. NOD.Cg-PrkdcScidIl2rgtmlWji/Szj), adult (>8 week old) male mice obtained from the Sidney Kimmel Comprehensive Cancer Center (SKCCC) Animal Core Facility are described previously (Isaacs 2013; Brennen et al. JCI Insight. 2021, 6(8):e146827; Zhu et al. Oncogene 2020, 39(45): 6935-6949). […] In vitro growth curves were determined as described (Isaacs 2013). In vivo growth response to oral daily TasQ (10 mg/kg/d) of TRAMP-C2 mouse prostate cancers was evaluated in C57BL/6J syngeneic wild type vs. NOX-2 vs. iNOS null male mice obtained from Jackson Laboratory (Bar Harbor, ME). Growth response to oral daily TasQ (10 mg/kg/d) of TRAMP-C2 and B6CaP mouse prostate cancers was also evaluated in S100A9 null C57BL′6J male mice obtained from Dmitry Gabrilovich (Wistar Institute). […] In vitro growth curves were determined as described (Isaacs 2013). Growth response to daily oral TasQ vs. ESATA-20 (both at 10 mg/kg/d) of Myc-CaP-CR mouse prostate cancer was evaluated in syngeneic FVB/NJ castrate male mice from Jackson Laboratory. […]
smiles,measurement,value
"COc1cccc2c1c(O)c(C(=O)N(C)c1ccc(C(F)(F)F)cc1)c(=O)n2C [TasQ, Tasquinimod]",inhibition of tumor growth,> 70%
